Experimental data published in patent publication US9128097B2, “Method and kit for assessing viable cells” (ChemoMetec A/S, priority 2008, dated 2015).

How the values were obtained:
[1] = test system: Jurkat (JM) cells; test: Staining of proliferating Jurkat cells with labelling agent and propidium iodide, fluorescence microscopy; type: cell-based; details: 10 μL agent (100 μg pr. mL DMSO) added to 90 μL cells, only exception PI positive cells
Protocol: (§1) Materials and Methods. Jurkat (JM) cells were grown at 37° C. in a humidified air atmosphere with 5% CO2 in RPMI (Invitrogen, #61870) supplemented with 10% heat-inactivated fetal bovine serum (Invitrogen, #10108-165). 90 μL proliferating Jurkat cells (cell density 1.2×10^6, 99% viable determined using the NC-100 NucleoCounter system following the manufacturer's (ChemoMetec A/S) protocol) were added 10 μL NAM (N-(9-acridinyl)maleimide, Sigma, #01665, CAS no. 49759-20-8) dissolved in DMSO (100 μg NAM pr. mL DMSO) and mixed by pipetting. Cells were loaded into a NucleoCassette, containing the DNA stain propidium iodide (PI). The cells were investigated using an Olympus IX50 fluorescence microscope, and images were captured using a Lumenera CCD camera and in-house developed software. PI and NAM fluorescence were detected using, respectively, U-MWG2 (green long pass: 510-550 nm) and U-MNUA2 (UV band pass, 330-385 nm) filter cubes (Olympus).
as §1, with “1.0×10^6,” for “1.2×10^6,”, “(ChemoMetec)” for “(ChemoMetec A/S)”, “CPM (7-diethylamino-3-[4′-maleimidylphenyl]-4-methylcoumarin, Chemodex Ltd.,” for “NAM (N-(9-acridinyl)maleimide, Sigma, #01665,”, “76877-33-3)” for “49759-20-8)”, “CPM” for “NAM”
as §1, with “1.1×10^6, 98%” for “1.2×10^6, 99%”, “(ChemoMetec)” for “(ChemoMetec A/S)”, “PM (N-(1-Pyrenyl)maleimide, Sigma P7908” for “NAM (N-(9-acridinyl)maleimide, Sigma, #01665,”, “42189-56-0)” for “49759-20-8)”, “PM” for “NAM”, “Cells were loaded into a NucleoCassette, containing the DNA stain propidium iodide (PI).” left out
Materials and Methods. […] 90 μL proliferating Jurkat cells (cell density 1.1×10^6, 98% viable determined using the NC-100 NucleoCounter system following the manufacturer's (ChemoMetec) protocol) were added 10 μL CPI (7-diethylamino-3-((4′-(iodoacetyl)amino)phenyl)-4-methylcoumarin, Sigma 78264 CAS no. 76877-34-4) dissolved in DMSO (100 μg CPI pr. mL DMSO) and mixed by pipetting. […] The cells were investigated using an Olympus IX50 fluorescence microscope, and images were captured using a Lumenera CCD camera and in-house developed software. PI and CPI fluorescence were detected using, respectively, U-MWG2 (green long pass: 510-550 nm) and U-MNUA2 (UV band pass, 330-385 nm) filter cubes (Olympus). […]

[2] = test system: HEK293 cells; test: NAM/PI staining of outgrown HEK293 cells, fluorescence microscopy; type: cell-based, Human; details: HEK293 cells treated with 0.25% Triton X-100; 10 μg/mL NAM
Protocol: Materials and Methods. HEK293 cells were grown at 37° C. in a humidified air atmosphere with 5% CO2 in DMEM (Invitrogen, #31966) supplemented with 10% heat-inactivated fetal bovine serum (Invitrogen, #10108-165). Cells were harvested with 0.5 mL of trypsin (Invitrogen, #25300) and neutralized with 5 mL medium (DMEM+10% FCS) two days after they had reached full confluency. These outgrown HEK293 cells (cell density 1.6×10^6, 78% viable determined using the NC-100 NucleoCounter system following the manufacturer's (ChemoMetec) protocol) were stained with 10 μg/mL NAM (Sigma, #01665). Another cell sample were treated with 0.25% Triton X-100 (Sigma, #T9284) and hereafter added 10 μg/mL NAM. After staining, each cell sample was loaded into a NucleoCassette, containing the DNA stain propidium iodide (PI). The cells were investigated using an Olympus IX50 fluorescence microscope, and images were captured using a Lumenera CCD camera and in-house developed software. PI and NAM fluorescence were detected using, respectively, U-MWG2 (green long pass: 510-550 nm) and U-MNUA2 (UV band pass, 330-385 nm) filter cubes (Olympus).

[3] = test system: bone marrow derived dendritic cells (BM-DCs); test: Staining of bone marrow derived dendritic cells with labelling agent and PI; type: cell-based, murine; details: dendritic cells 97% viable; 10 μL mCB (100 μg pr. mL DMSO) to 90 μL cells; incubated at room temperature for 1 hour
Excerpt: Materials and Methods. Dendritic cells were developed from murine bone marrow derived cells as described by “Lutz, M. B., N. Kukutsch, A. L. Ogilvie, S. Rossner, F. Koch, N. Romani, and G. Schuler. 1999. An advanced culture method for generating large quantities of highly pure dendritic cells from mouse bone marrow. J Immunol Methods 223:77-92”. Bone marrow cells were harvested aseptically in the laminar flow hood as described in example 11. Washed and resuspended bone marrow cells were resuspended in RPMI 1640 (Invitrogen, #61870) supplemented with 10% heat-inactivated fetal bovine serum (Invitrogen, #10108-165), 100 U/mL penicillin and 100 μg/mL streptomycin (Invitrogen, #15140-122). […] 90 μL dendritic cells (cell density 1.2×10^6, 97% viable determined using the NC-100 NucleoCounter system following the manufacturer's (ChemoMetec A/S) protocol) were added 10 μL NAM (N-(9-acridinyl)maleimide, Sigma, #01665, CAS no. 49759-20-8) dissolved in DMSO (100 μg NAM pr. mL DMSO) and mixed by pipetting. […] The cells were investigated using an Olympus IX50 fluorescence microscope, and images were captured using a Lumenera CCD camera and in-house developed software. PI and NAM fluorescence were detected using, respectively, U-MWG2 (green long pass: 510-550 nm) and U-MNUA2 (UV band pass, 330-385 nm) filter cubes (Olympus). […]

CCN(CC)c1ccc2c(C)c(-c3ccc(NC(=O)CI)cc3)c(=O)oc2c1 [CPI, 7-diethylamino-3-((4′-(iodoacetyl)amino)phenyl)-4-methylcoumarin]
staining of cells (UV filter) versus PI positive cells [1]: nearly all cells were stained by CPI

CCN(CC)c1ccc2c(C)c(-c3ccc(N4C(=O)C=CC4=O)cc3)c(=O)oc2c1 [CPM, 7-diethylamino-3-[4′-maleimidylphenyl]-4-methylcoumarin]
staining of cells (UV filter) versus PI positive cells [1]: nearly all cells were stained by CPM

CC[N+](C)(CC)CCC[n+]1c(-c2ccccc2)c2cc(N)ccc2c2ccc(N)cc21.[I-].[I-] [PI, propidium iodide]
staining of Triton X-100 treated cells [2]: PI positive

O=C1C=CC(=O)N1c1ccc2ccc3cccc4ccc1c2c34 [PM, N-(1-Pyrenyl)maleimide]
staining of cells (UV filter) versus PI positive cells [1]: nearly all cells were stained by PM

Cc1c(C)n2c(CCl)c(C)c(=O)n2c1=O [mCB, monochlorobimane]
staining of cells (UV filter) versus PI positive cells [3]: nearly all the dendritic cells were stained by mCB
